Measurements reported in ChEMBL document CHEMBL1159131, “Structural modifications of 6-naphthalene-2-carboxylate retinoids” (Bioorg Med Chem Lett, 1996).
The source made the active and inactive calls. No cut-off for these calls is given here.

Assays:
[1] = biological target: T1, Retinoic acid receptor beta (Homo sapiens) (UniProt P10826); assay: Maximum retinoic acid receptor (RAR)-beta transactivation activity relative to retinoic acid at 10e-6 M
T1 sequence (whole entry): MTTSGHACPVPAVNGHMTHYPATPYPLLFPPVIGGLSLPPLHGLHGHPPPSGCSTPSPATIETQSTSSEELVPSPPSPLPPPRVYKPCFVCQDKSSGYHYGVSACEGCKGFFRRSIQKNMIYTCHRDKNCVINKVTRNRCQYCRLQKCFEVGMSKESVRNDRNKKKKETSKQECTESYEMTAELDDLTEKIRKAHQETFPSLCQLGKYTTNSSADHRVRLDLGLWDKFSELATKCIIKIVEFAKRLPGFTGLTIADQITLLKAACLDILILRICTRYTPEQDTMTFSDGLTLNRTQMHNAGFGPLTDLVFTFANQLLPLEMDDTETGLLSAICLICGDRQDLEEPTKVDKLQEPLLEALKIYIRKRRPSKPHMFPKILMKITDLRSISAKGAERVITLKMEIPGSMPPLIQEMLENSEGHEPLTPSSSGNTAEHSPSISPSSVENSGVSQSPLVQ

[2] = biological target: T2, Retinoic acid receptor alpha (Homo sapiens) (UniProt P10276); assay: Transcriptional activation activity against retinoic acid receptor RAR alpha
T2 sequence (whole entry): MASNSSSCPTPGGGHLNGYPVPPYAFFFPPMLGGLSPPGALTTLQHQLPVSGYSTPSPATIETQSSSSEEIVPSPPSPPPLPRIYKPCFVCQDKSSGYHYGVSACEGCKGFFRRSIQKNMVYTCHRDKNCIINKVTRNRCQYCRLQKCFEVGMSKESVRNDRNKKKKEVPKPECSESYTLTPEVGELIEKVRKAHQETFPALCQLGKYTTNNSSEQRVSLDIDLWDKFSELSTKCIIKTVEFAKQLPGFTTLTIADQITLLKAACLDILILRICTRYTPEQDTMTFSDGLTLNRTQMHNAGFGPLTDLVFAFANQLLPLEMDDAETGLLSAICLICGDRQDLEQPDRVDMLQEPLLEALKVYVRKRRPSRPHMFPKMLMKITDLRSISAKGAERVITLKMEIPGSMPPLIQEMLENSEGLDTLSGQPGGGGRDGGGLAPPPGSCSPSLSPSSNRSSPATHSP

[3] = biological target: T2, Retinoic acid receptor alpha (Homo sapiens); assay: Maximum retinoic acid receptor (RAR)-alpha transactivation activity relative to retinoic acid at 10e-6 M
[4] = biological target: T1, Retinoic acid receptor beta (Homo sapiens); assay: Transactivation activity at retinoic acid receptor beta.
[5] = biological target: T2, Retinoic acid receptor alpha (Homo sapiens); assay: Transcriptional activation activity against retinoic acid receptor RAR alpha; Not active
[6] = biological target: T3, Retinoic acid receptor gamma (Homo sapiens) (UniProt P13631); assay: Transcriptional activation activity against retinoic acid receptor RAR gamma; Not active
T3 sequence (whole entry): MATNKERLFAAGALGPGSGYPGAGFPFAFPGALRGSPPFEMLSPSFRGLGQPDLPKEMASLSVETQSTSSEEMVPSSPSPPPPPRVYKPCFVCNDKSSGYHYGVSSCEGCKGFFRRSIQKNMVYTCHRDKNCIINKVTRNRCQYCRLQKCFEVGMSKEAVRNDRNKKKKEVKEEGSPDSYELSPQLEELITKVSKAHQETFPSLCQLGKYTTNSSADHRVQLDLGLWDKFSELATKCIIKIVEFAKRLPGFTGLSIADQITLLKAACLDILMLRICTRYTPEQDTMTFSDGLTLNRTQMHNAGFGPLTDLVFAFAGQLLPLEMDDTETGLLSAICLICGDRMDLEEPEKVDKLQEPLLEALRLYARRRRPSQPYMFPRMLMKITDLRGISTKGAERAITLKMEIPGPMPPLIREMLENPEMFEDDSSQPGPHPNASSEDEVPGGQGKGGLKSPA

[7] = biological target: T1, Retinoic acid receptor beta (Homo sapiens); assay: Transcriptional activation activity against retinoic acid receptor RAR beta; Not active

Row | Compound | Max [1] [%] | EC50 ratio [2] | Max [3] [%] | EC50 ratio [4] | EC50 ratio [5] | EC50 ratio [6] | EC50 ratio [7]
1 | CC1(C)CCC(C)(C)c2cc(Oc3ccc4cc(C(=O)O)ccc4c3)ccc21 | 120 | 63 | 56 | 20 | – | – | –
2 | COc1cc2c(cc1C(=O)c1ccc3cc(C(=O)O)ccc3c1)C(C)(C)CCC2(C)C | 61 | 8 | 23 | 14 | – | – | –
3 | CC1(C)CCC(C)(C)c2c1ccc(C(O)c1ccc3cc(C(=O)O)ccc3c1)c2F (stereo unspecified) | 74 | – | 0 | 133 | inactive | – | –
4 | CC1(C)CCC(C)(C)c2c(F)cc(C(=O)c3ccc4cc(C(=O)O)ccc4c3)cc21 | 81 | 10 | 63 | 4 | – | – | –
5 | CC1(C)CCC(C)(C)c2cc(S/C=C/c3ccc(C(=O)O)cc3)ccc21 | 158 | 1.3 | 118 | 0.8 | – | – | –
6 | Cc1cc2c(cc1C(=O)c1ccc3cc(C(=O)O)ccc3c1)C(C)(C)CCC2(C)C | 81 | 25 | 26 | 25 | – | – | –
7 | CC1(C)CCC(C)(C)c2c1cc(O)c(C(=O)c1ccc3cc(C(=O)O)ccc3c1)c2F | 87 | 100 | 46 | 6.7 | – | – | –
8 | CC1(C)CCC(C)(C)c2cc(C(=O)/C=C/c3ccc(C(=O)O)cc3)ccc21 | – | 0.7 | – | 1.2 | – | – | –
9 | CC1(C)CCC(C)(C)c2cc(S(=O)(=O)/C=C/c3ccc(C(=O)O)cc3)ccc21 | 35 | – | 0 | 200 | inactive | – | –
10 | CC1(C)CCC(C)(C)c2cc([S+]([O-])/C=C/c3ccc(C(=O)O)cc3)ccc21 (stereo unspecified) | 96 | 38 | 42 | 40 | – | – | –
11 | CC1(C)CCC(C)(C)c2cc(C(=O)c3ccc4cc(C(=O)O)ccc4c3O)ccc21 | 0 | – | 0 | – | inactive | inactive | inactive
12 | CC1(C)CCC(C)(C)c2c(F)cc(C(O)c3ccc4cc(C(=O)O)ccc4c3)cc21 (stereo unspecified) | 0 | – | 0 | – | inactive | inactive | inactive
13 | CC1(C)CCC(C)(C)c2cc(S(=O)(=O)c3ccc4cc(C(=O)O)ccc4c3)ccc21 | 32 | – | 0 | 133 | inactive | – | –
14 | CC1(C)CCC(C)(C)c2cc(Sc3ccc4cc(C(=O)O)ccc4c3)ccc21 | 88 | 25 | 45 | 10 | – | – | –
15 | CC1(C)CCC(C)(C)c2cc(C(=O)c3ccc4cc(C(=O)O)ccc4c3)c(O)cc21 | 76 | 25 | 44 | 7.5 | – | – | –
16 | CC1(C)CCC(C)(C)c2cc(C(O)c3ccc4cc(C(=O)O)ccc4c3)c(O)cc21 (stereo unspecified) | 18 | – | 0 | – | inactive | – | inactive
17 | CC1(C)CCC(C)(C)c2cc(Nc3ccc4cc(C(=O)O)ccc4c3)ccc21 | 92 | 25 | 27 | 17 | – | – | –
18 | CC1(C)CCC(C)(C)c2cc(C(O)c3ccc4cc(C(=O)O)ccc4c3)c(F)cc21 (stereo unspecified) | 30 | – | 0 | 133 | inactive | – | –
19 | CC1(C)CCC(C)(C)c2cc(C(=O)c3ccc4cc(C(=O)O)ccc4c3)c(F)cc21 | 81 | 25 | 34 | 15 | – | – | –
20 | CC1(C)CCC(C)(C)c2cc(C(O)c3ccc4cc(C(=O)O)ccc4c3)ccc21 (stereo unspecified) | 77 | – | 0 | – | – | – | –
21 | CC1(C)CCC(C)(C)c2cc([S+]([O-])c3ccc4cc(C(=O)O)ccc4c3)ccc21 (stereo unspecified) | 52 | – | 0 | 167 | inactive | – | –
22 | COc1c(C(=O)c2ccc3c(c2)C(C)(C)CCC3(C)C)ccc2cc(C(=O)O)ccc12 | 0 | – | 0 | – | inactive | inactive | inactive
23 | Cc1cc2c(cc1C(O)c1ccc3cc(C(=O)O)ccc3c1)C(C)(C)CCC2(C)C (stereo unspecified) | 96 | – | 0 | 100 | inactive | – | –
24 | COc1c(C(=O)c2ccc3cc(C(=O)O)ccc3c2)ccc2c1C(C)(C)CCC2(C)C | 0 | – | 0 | – | inactive | inactive | inactive
